From patent US20220272990A1, “Methods and Compositions of the Botanical Extract to Promote and Boost Plant Growth and Prevent and Suppress Plant Diseases” (priority 2019, published 2022)

What was measured:
[1] = test system: Fusarium graminearum; type: cell-based; conditions: thyme, yarrow extracts; 35% ethanol
[2] = test system: Salmonella (S31); test: Burkholder's spot bioassay on carpet of bacteria; type: cell-based; conditions: Salmonella spp. (S531); composition 2% + thymol 1:512, or single dose of thymol 1:512
Description: Referring now to FIG. 28, Salmonella (S31—mungbean sprout isolate) treated with thyme is shown.

[3] = test system: Pathogenic Salmonella (S1); test: Burkholder's spot bioassay on carpet of bacteria; type: cell-based; conditions: Salmonella spp. (SL1); composition 2% + thymol 1:512, or single dose of thymol 1:512
[4] = test system: Xanthomonas campestris; test: Burkholder's spot bioassay on carpet of bacteria; type: cell-based
[5] = test system: Aspergillus ochraceus; test: Antifungal and MIC spot assay on carpet of fungi; conditions: composition 1% + thymol 1:768, or thymol 1:768 alone
[6] = test system: Env. Salmonella (S22); test: Burkholder's spot bioassay on carpet of bacteria; type: cell-based; conditions: Salmonella spp. (S22); composition 2% + thymol 1:512, or single dose of thymol 1:512
Procedure: Referring now to FIGS. 26A to 26C, environmental Salmonella (S22) treated with thyme, yarrow, the botanical composition and control (C) are shown. […] A determined volume of (i.e. 10 μl) dissolved extract from each concentration is spotted on carpet of bacteria.

`CCO` [35% ethanol, ethanol] was tested, and the “inhibition of spore germination” value [1] was “complete inhibition”.

For `Cc1ccc(C(C)C)c(O)c1` [thymol], the antimicrobial effectiveness [2] was “not effective”, the antimicrobial effectiveness [3] was “not effective” and the antimicrobial effectiveness [4] was “not effective”. For the same compound, the “antifungal effectiveness on growth” value [5] was “not effective” and the antimicrobial effectiveness [6] was “not effective”.
